Source: patent US20180200308A1, “METHODS OF TREATING COLITIS” (priority 2015, published 2018)

Tests used:
DSS-induced colitis = format: in vivo
Protocol: To further examine the effect of antibiotic and a BSC on ulcerative colitis, the DSS model described supra was used with the addition of arms evaluating vancomycin as the sole antibiotic. In this experiment, three-week-old male C57B1/6 mice, 15 per group (9 in the Naïve control group), were treated according to the Table 2.
Either vancomycin (Groups 5 and 6) or an antibiotic mixture (Groups 7 and 8) was administered to mice in their drinking water prior to receiving treatment to evaluate the effect on BSC efficacy. Mice were dosed by oral gavage with either PBS (Groups 2, 5, and 7) or BSC (Groups 6 and 8) three times per week starting on Day 9 and continuing through the end of the study (Day 38). Group 4 was dosed with a BSC three times per week starting on Day 0. On days 28-32, mice were exposed to 2% DSS in their drinking water (Groups 2-8) and observed until Day 38. Periodic measurements included body weight and clinical scores. On Day 38, animals were euthanized and features of the colon were evaluated including weight, length, and gross pathology. Colon samples were prepared for histopathology and scored by a pathologist blinded to treatment group and the nature of the Test Item.

TNBS-induced colitis = test: TNBS model of colitis with and without broad-spectrum antibiotic or vancomycin pretreatment (Example 5); format: in vivo, Balb/c mice
Protocol: Additional experiments were carried out using the TNBS model (described supra) using a BSC in combination with an antibiotic. In these experiments, three-week-old male Balb/c mice, 24 per group (9 in the naïve control group), were treated according to Table 4.
Either vancomycin (Groups 5 and 6) or an antibiotic mixture (Groups 7 and 8) was administered to mice in their drinking water prior to receiving treatment to evaluate the effect on BSC efficacy (Groups 5-8). Mice were dosed by oral gavage with either PBS (Groups 2, 5, and 7) or BSC (Groups 6 and 8) three times per week starting on Day 7 and continuing through the end of the study (Day 35). Mice in group 4 received BSC three times per week by oral gavage starting on Day 0. On day 28, mice were anesthetized with isoflurane and received intracolonic 2% TNBS (Groups 2-8). Periodic measurements included body weight and clinical scores. On Day 35, animals were euthanized and gross pathology was evaluated. Colon samples were prepared for histopathology and scored by a pathologist blinded to treatment group and the nature of the Test Item.

[1] = vs Negative Control (Group 2), Day 38

Which “colon pathology (gross pathology and histopathology scores)” value (DSS-induced colitis; compared to naïve mice) does the source give for `CN[C@H](CC(C)C)C(=O)N[C@H]1C(=O)N[C@@H](CC(N)=O)C(=O)N[C@H]2C(=O)N[C@H]3C(=O)N[C@H](C(=O)N[C@H](C(=O)O)c4cc(O)cc(O)c4-c4cc3ccc4O)[C@H](O)c3ccc(c(Cl)c3)Oc3cc2cc(c3O[C@@H]2O[C@H](CO)[C@@H](O)[C@H](O)[C@H]2O[C@H]2C[C@](C)(N)[C@H](O)[C@H](C)O2)Oc2ccc(cc2Cl)[C@H]1O` [Vancomycin, vancomycin] here?
The value was “worsening in colon pathology”.

And the “protection against DSS-induced disease / pathology” value (DSS-induced colitis; vs Negative Control)?
Its value is “significant protection”.

And the clinical score (DSS-induced colitis; vs Negative Control (Group 2))?
Its clinical score is “reduced clinical scores”.

And the “colon pathology (overall)” value (DSS-induced colitis; vs Negative Control (Group 2))?
Its value is “overall improvement in colon pathology”.

What about the colon weight (DSS-induced colitis; vs Negative Control (Group 2)) of the same compound?
The colon weight was “reduced colon weight”.

What about the “maximal body weight loss / body weight loss (in words)” value (DSS-induced colitis; vs Negative Control (Group 2)) of the same compound?
The value was “significantly reduced”.

What about the colon length (DSS-induced colitis; [1]) of the same compound?
The colon length was “increased colon length”.

And the gross pathology score (DSS-induced colitis; [1])?
The gross pathology score was “improved”.

And the histopathology score (DSS-induced colitis; [1])?
Its histopathology score is “improved”.

And the “protection against weight loss” value (TNBS-induced colitis; antibiotic pretreatment alone)?
The value was “no effect”.

What about the “dead or euthanized / group size” value (TNBS-induced colitis; following TNBS induction, Positive Control = anti-IL12) of the same compound?
Its value is 2/24.

What about the Mortality (TNBS-induced colitis; following TNBS induction, Positive Control = anti-IL12, Negative Control 33%) of the same compound?
The Mortality was 8%.

What about the histopathology scores (TNBS-induced colitis; vs Negative Control Group 2, BSC p=0.14) of the same compound?
The histopathology scores was “not different”.

What about the clinical scores (TNBS-induced colitis; vs Negative Control Group 2, Positive Control = anti-IL12) of the same compound?
The clinical scores was “not statistically improved”.
